Reference: patent US10597388B2, “Pyridazinone herbicides” (FMC CORPORATION, priority 2014, dated 2020)

Experiments:
Type in all cases: in vivo
[1] = test system: galium (catchweed bedstraw, Galium aparine); assay: Test A greenhouse herbicide test, postemergence; conditions: for Plant response rating, Galium: 125 g ai/ha, 0 to 100 scale where 0 is no effect and 100 is complete control; for Galium plant response rating: 500 g ai/ha, 0 to 100 scale, 0 is no effect, 100 is complete control
Summary of the method: (§1)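 Seedlings in a loam soil and sand mix received formulated compound postemergence at the one- to two-leaf stage. Greenhouse holding lasts approximately 10 d, then injury is scored visually relative to untreated plants, 0 meaning no effect and 100 complete control.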

[2] = test system: blackgrass (Alopecurus myosuroides); assay: Test A greenhouse herbicide test, postemergence; conditions: for Plant response rating, Blackgrass: 125 g ai/ha, 0 to 100 scale where 0 is no effect and 100 is complete control; for Blackgrass plant response rating: 500 g ai/ha, 0 to 100 scale, 0 is no effect, 100 is complete control
Summary of the method: as §1

[3] = test system: nutsedge, yellow (yellow nutsedge, Cyperus esculentus); assay: Test C greenhouse herbicide test, pre- and postemergence
Summary of the method: (§2)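 Percent-control ratings (0 none, 100 complete) came from visual comparison with controls held alongside in the greenhouse for 13–15 d. Treatments covered soil application at sowing and foliar application to young plants 2–18 cm tall.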

[4] = test system: galium (catchweed bedstraw, Galium aparine); assay: as above
Summary of the method: as §2

[5] = test system: wheat (winter wheat, Triticum aestivum); assay: as above
Summary of the method: as §2

[6] = test system: barnyardgrass (Echinochloa crus-galli); assay: as above
Summary of the method: as §2

[7] = test system: foxtail, giant (giant foxtail, Setaria faberii); assay: Test A greenhouse herbicide test, pre- and postemergence
Summary of the method: (§3)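 Visual injury ratings, 0 (no effect) to 100 (complete control), versus untreated plants after roughly 10 d in a greenhouse. Compounds, formulated in a surfactant-containing non-phytotoxic solvent, were sprayed on loam–sand soil after sowing (pre) or on one- to two-leaf plants 2–10 cm tall (post).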

[8] = test system: ragweed (common ragweed, Ambrosia elatior); assay: as above
Summary of the method: as §3

corn (Zea mays) = assay: as above; conditions: Postemergence; for Plant response rating, Corn: 125 g ai/ha, 0 to 100 scale where 0 is no effect and 100 is complete control; for Corn plant response rating: 500 g ai/ha, 0 to 100 scale, 0 is no effect, 100 is complete control
Summary of the method: as §3

[9] = test system: pigweed (Amaranthus retroflexus); assay: as above
Summary of the method: as §3

[10] = test system: barnyardgrass (Echinochloa crus-galli); assay: as above
Summary of the method: as §3

[11] = Postemergence, 31 g ai/ha, 0 to 100 scale (0 no effect, 100 complete control)
[12] = Postemergence, 125 g ai/ha, scale 0 to 100, 0 is no effect, 100 is complete control
[13] = Postemergence, 250 g ai/ha, scale 0 to 100, 0 no effect, 100 complete control, 13 to 15 d
[14] = Preemergence, 31 g ai/ha, scale 0 to 100, 0 is no effect, 100 is complete control
[15] = Preemergence, 62 g ai/ha, scale 0 to 100, 0 is no effect, 100 is complete control
[16] = Preemergence, 125 g ai/ha, scale 0 to 100, 0 is no effect, 100 is complete control
[17] = Preemergence, 250 g ai/ha, scale 0 to 100 (0 no effect, 100 complete control)
[18] = postemergence, 62 g ai/ha, scale 0 to 100, 0 no effect, 100 complete control
[19] = Postemergence, 125 g ai/ha, 0 to 100 scale where 0 is no effect and 100 is complete control
[20] = Postemergence, 500 g ai/ha, 0 to 100 scale, 0 is no effect, 100 is complete control
[21] = Preemergence, 125 g ai/ha, 0 to 100 scale where 0 is no effect and 100 is complete control
[22] = Preemergence, 500 g ai/ha, 0 to 100 scale, 0 no effect, 100 complete control
[23] = Preemergence, 500 g ai/ha, 0 to 100 scale where 0 is no effect and 100 is complete control

## Cc1cc(C)c2sc(C)c(-c3c(OC(=O)OC(C)C)c(C)nn(C)c3=O)c2c1 [Compound 67]
[1]
  Plant response rating, Galium: 80
  Galium plant response rating: 90
[2]
  Plant response rating, Blackgrass: 70
  Blackgrass plant response rating: 80
[3]; [11]
  Nutsedge, Yellow plant response rating: 65
[3]; [12]
  Plant response rating, Nutsedge, Yellow: 80
[3]; [13]
  Plant response rating, Nutsedge, Yellow: 85
[3]; [14]
  Plant response rating, Nutsedge, Yellow: 10
[3]; [15]
  Plant response rating, Nutsedge, Yellow: 20
[3]; [16]
  Plant response rating, Nutsedge, Yellow: 55
[3]; [17]
  Nutsedge, Yellow plant response rating: 70
[3]; [18]
  Nutsedge, Yellow plant response rating: 70
[4]; [11]
  Galium plant response rating: 90
[4]; [12]
  Plant response rating, Galium: 95
[4]; [13]
  Plant response rating, Galium: 90
[4]; [14]
  Plant response rating, Galium: 70
[4]; [15]
  Plant response rating, Galium: 90
[4]; [16]
  Plant response rating, Galium: 90
[4]; [17]
  Galium plant response rating: 90
[4]; [18]
  Galium plant response rating: 95
[5]; [11]
  Wheat plant response rating: 0
[5]; [12]
  Plant response rating, Wheat: 0
[5]; [13]
  Plant response rating, Wheat: 0
[5]; [14]
  Plant response rating, Wheat: 0
[5]; [15]
  Plant response rating, Wheat: 0
[5]; [16]
  Plant response rating, Wheat: 0
[5]; [17]
  Wheat plant response rating: 0
[5]; [18]
  Wheat plant response rating: 0
[6]; [11]
  Barnyardgrass plant response rating: 25
[6]; [12]
  Plant response rating, Barnyardgrass: 35
[6]; [13]
  Plant response rating, Barnyardgrass: 45
[6]; [14]
  Plant response rating, Barnyardgrass: 5
[6]; [15]
  Plant response rating, Barnyardgrass: 20
[6]; [16]
  Plant response rating, Barnyardgrass: 40
[6]; [17]
  Barnyardgrass plant response rating: 80
[6]; [18]
  Barnyardgrass plant response rating: 35
[7]; [19]
  Plant response rating, Foxtail, Giant: 80
[7]; [20]
  Foxtail, Giant plant response rating: 90
[7]; [21]
  Foxtail, Giant plant response rating: 80
[7]; [22]
  Plant response rating, Foxtail, Giant: 100
[8]; [19]
  Plant response rating, Ragweed: 50
[8]; [20]
  Ragweed plant response rating: 70
[8]; [21]
  Ragweed plant response rating: 80
[8]; [22]
  Plant response rating, Ragweed: 80
Corn (Zea mays)
  Plant response rating, Corn: 0
  Corn plant response rating: 0
[9]; [19]
  Plant response rating, Pigweed: 20
[9]; [20]
  Pigweed plant response rating: 20
[9]; [21]
  Pigweed plant response rating: 90
[9]; [22]
  Plant response rating, Pigweed: 100
[10]; [19]
  Plant response rating, Barnyardgrass: 20
[10]; [20]
  Barnyardgrass plant response rating: 70
[10]; [21]
  Barnyardgrass plant response rating: 30
[10]; [22]
  Plant response rating, Barnyardgrass: 90

## CCOC(=O)Oc1c(C)nn(C)c(=O)c1-c1c(C)ccc2ccccc12 [Compound 73]
[1]
  Plant response rating, Galium: 100
  Galium plant response rating: 100
[2]
  Plant response rating, Blackgrass: 90
  Blackgrass plant response rating: 90
[3]; [11]
  Nutsedge, Yellow plant response rating: 80
[3]; [12]
  Plant response rating, Nutsedge, Yellow: 80
[3]; [13]
  Plant response rating, Nutsedge, Yellow: 90
[3]; [14]
  Plant response rating, Nutsedge, Yellow: 0
[3]; [15]
  Plant response rating, Nutsedge, Yellow: 35
[3]; [16]
  Plant response rating, Nutsedge, Yellow: 50
[3]; [17]
  Nutsedge, Yellow plant response rating: 95
[3]; [18]
  Nutsedge, Yellow plant response rating: 80
[4]; [11]
  Galium plant response rating: 90
[4]; [12]
  Plant response rating, Galium: 95
[4]; [13]
  Plant response rating, Galium: 95
[4]; [14]
  Plant response rating, Galium: 90
[4]; [15]
  Plant response rating, Galium: 98
[4]; [16]
  Plant response rating, Galium: 95
[4]; [17]
  Galium plant response rating: 98
[4]; [18]
  Galium plant response rating: 90
[5]; [11]
  Wheat plant response rating: 10
[5]; [12]
  Plant response rating, Wheat: 35
[5]; [13]
  Plant response rating, Wheat: 40
[5]; [14]
  Plant response rating, Wheat: 0
[5]; [15]
  Plant response rating, Wheat: 20
[5]; [16]
  Plant response rating, Wheat: 35
[5]; [17]
  Wheat plant response rating: 60
[5]; [18]
  Wheat plant response rating: 30
[6]; [11]
  Barnyardgrass plant response rating: 25
[6]; [12]
  Plant response rating, Barnyardgrass: 55
[6]; [13]
  Plant response rating, Barnyardgrass: 60
[6]; [14]
  Plant response rating, Barnyardgrass: 10
[6]; [15]
  Plant response rating, Barnyardgrass: 25
[6]; [16]
  Plant response rating, Barnyardgrass: 70
[6]; [17]
  Barnyardgrass plant response rating: 85
[6]; [18]
  Barnyardgrass plant response rating: 40
[7]; [19]
  Plant response rating, Foxtail, Giant: 90
[7]; [20]
  Foxtail, Giant plant response rating: 100
[7]; [21]
  Foxtail, Giant plant response rating: 90
[7]; [23]
  Plant response rating, Foxtail, Giant: 100
[8]; [19]
  Plant response rating, Ragweed: 90
[8]; [20]
  Ragweed plant response rating: 100
[8]; [21]
  Ragweed plant response rating: 90
[8]; [23]
  Plant response rating, Ragweed: 90
Corn (Zea mays)
  Plant response rating, Corn: 20
  Corn plant response rating: 60
[9]; [19]
  Plant response rating, Pigweed: 100
[9]; [20]
  Pigweed plant response rating: 100
[9]; [21]
  Pigweed plant response rating: 100
[9]; [23]
  Plant response rating, Pigweed: 100
[10]; [19]
  Plant response rating, Barnyardgrass: 40
[10]; [20]
  Barnyardgrass plant response rating: 90
[10]; [21]
  Barnyardgrass plant response rating: 40
[10]; [22]
  Plant response rating, Barnyardgrass: 100

## COC(=O)Oc1c(C)nn(C)c(=O)c1-c1c(C)sc2c(C)cc(C)cc12 [Compound 81]
[1]
  Plant response rating, Galium: 100
  Galium plant response rating: 100
[2]
  Plant response rating, Blackgrass: 90
  Blackgrass plant response rating: 90
[3]; [12]
  Plant response rating, Nutsedge, Yellow: 90
[3]; [13]
  Plant response rating, Nutsedge, Yellow: 90
[3]; [14]
  Plant response rating, Nutsedge, Yellow: 60
[3]; [15]
  Plant response rating, Nutsedge, Yellow: 70
[3]; [16]
  Plant response rating, Nutsedge, Yellow: 80
[3]; [17]
  Nutsedge, Yellow plant response rating: 95
[3]; [18]
  Nutsedge, Yellow plant response rating: 85
[4]; [12]
  Plant response rating, Galium: 95
[4]; [13]
  Plant response rating, Galium: 95
[4]; [14]
  Plant response rating, Galium: 90
[4]; [15]
  Plant response rating, Galium: 95
[4]; [16]
  Plant response rating, Galium: 95
[4]; [17]
  Galium plant response rating: 95
[4]; [18]
  Galium plant response rating: 95
[5]; [12]
  Plant response rating, Wheat: 0
[5]; [13]
  Plant response rating, Wheat: 0
[5]; [14]
  Plant response rating, Wheat: 0
[5]; [15]
  Plant response rating, Wheat: 0
[5]; [16]
  Plant response rating, Wheat: 0
[5]; [17]
  Wheat plant response rating: 0
[5]; [18]
  Wheat plant response rating: 0
[6]; [11]
  Barnyardgrass plant response rating: 25
[6]; [12]
  Plant response rating, Barnyardgrass: 35
[6]; [13]
  Plant response rating, Barnyardgrass: 60
[6]; [14]
  Plant response rating, Barnyardgrass: 30
[6]; [15]
  Plant response rating, Barnyardgrass: 70
[6]; [16]
  Plant response rating, Barnyardgrass: 80
[6]; [17]
  Barnyardgrass plant response rating: 98
[6]; [18]
  Barnyardgrass plant response rating: 35
[7]; [19]
  Plant response rating, Foxtail, Giant: 90
[7]; [20]
  Foxtail, Giant plant response rating: 100
[7]; [21]
  Foxtail, Giant plant response rating: 100
[7]; [23]
  Plant response rating, Foxtail, Giant: 100
[8]; [19]
  Plant response rating, Ragweed: 90
[8]; [20]
  Ragweed plant response rating: 100
[8]; [21]
  Ragweed plant response rating: 90
[8]; [23]
  Plant response rating, Ragweed: 100
Corn (Zea mays)
  Plant response rating, Corn: 0
  Corn plant response rating: 0
[9]; [19]
  Plant response rating, Pigweed: 100
[9]; [20]
  Pigweed plant response rating: 100
[9]; [21]
  Pigweed plant response rating: 100
[9]; [23]
  Plant response rating, Pigweed: 100
[10]; [19]
  Plant response rating, Barnyardgrass: 30
[10]; [20]
  Barnyardgrass plant response rating: 90
[10]; [21]
  Barnyardgrass plant response rating: 90
[10]; [22]
  Plant response rating, Barnyardgrass: 100
